{"source": "paper PMC11826341", "about": "(PNAS Nexus, 2025)", "key": {"[1]": {"test_system": "cultured hippocampal neurons"}, "[2]": {"test_system": "cultured hippocampal neurons", "conditions": "48 h"}, "[3]": {"test_system": "sEPSCNMDAR, synaptic NMDARs of cultured hippocampal neurons", "format": "cell-based, rat"}}, "note": "Entries after “also recorded” stand apart in the source; their conditions may differ."}
{"smiles": "N[C@H](CCCP(=O)(O)O)C(=O)O", "note": "[AP5, (2R)-amino-5-phosphonovaleric acid]", "values": [{"measurement": "Neuroprotection against STRO", "setting": "[1]", "value": "did not exert neuroprotection"}]}
{"smiles": "CN[C@H](CC(=O)O)C(=O)O", "note": "[NMDA, N-methyl-D-aspartate]", "values": [{"measurement": "Neurons killed", "setting": "[2]", "value": "~80", "unit": "%"}]}
{"smiles": "CN[C@@H]1C[C@H]2O[C@@](C)([C@@H]1OC)n1c3ccccc3c3c4c(c5c6ccccc6n2c5c31)C(=O)NC4", "note": "[STRO, staurosporine]", "values": [{"measurement": "Apoptotic neurons", "setting": "[1]", "value": 30.85, "unit": "%"}, {"measurement": "Dead (apoptotic) neurons", "setting": "[1]", "value": 76.99, "unit": "%"}]}
{"smiles": "CC(C(O)c1ccc(O)cc1)N1CCC(Cc2ccccc2)CC1", "note": "(centres unmarked) [ifenprodil]", "values": [{"measurement": "sEPSCNMDAR amplitude", "setting": "[3]", "value": "strongly reduced amplitudes; also recorded: significantly less so in mature neurons"}]}
